Measured values published in BindingDB's records for doi:10.7270/Q23F4N29 (Broad Institute, 2010).

target: T1, S-ribosylhomocysteine lyase (Vibrio harveyi, UniProt B0LUE4); test: inhibition of purified LuxS SRH cleavage – biochemical, cell-free, homogeneous, mechanism study for V. harveyi quorum sensing inhibitors, dose response (AID 434944)
T1 sequence (B0LUE4 whole entry): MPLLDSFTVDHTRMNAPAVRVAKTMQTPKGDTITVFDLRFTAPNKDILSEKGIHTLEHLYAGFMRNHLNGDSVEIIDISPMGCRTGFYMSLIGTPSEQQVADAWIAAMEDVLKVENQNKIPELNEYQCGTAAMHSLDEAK

Compound | EC50
C=Cn1c(C(=O)O)ccc1-c1ccc(CC)cc1 | 149 µM
COc1cc(NC(=O)CN2C(=O)NC(c3ccccc3)(c3ccccc3)C2=O)cc(OC)c1 [MLS001176525] | > 350 µM
CCc1ccc(S(=O)(=O)Nc2ccc(Br)cn2)cc1 [MLS001211346] | > 350 µM
CCCc1ccc(S(=O)(=O)N(C)S(=O)(=O)c2ccc(F)cc2)cc1 [N-(4-fluorophenyl)sulfonyl-N-methyl-4-propylbenzenesulfonamide] | > 350 µM
CN(C)S(=O)(=O)c1ccc(NC(=S)NC(=O)Cc2ccccc2)cc1 [N-[[4-(dimethylsulfamoyl)phenyl]carbamothioyl]-2-phenyl-ethanamide] | > 350 µM
Cc1cccc(NS(=O)(=O)c2ccc(Oc3ccccc3)cc2)n1 [SMR000071466] | > 350 µM
Cn1cnc(S(=O)(=O)Nc2ccc(OC(F)(F)F)cc2)c1 [SMR000314513] | > 350 µM
